A value given as a limit tells only on which side of the number the result lay.

This experiment deals with T1, ΔF508-CFTR (Homo sapiens, UniProt P13569, DEL508-508).
T1 construct: expressed in transfected cells
Briefly: Membrane potential optical (FRET/VIPR) assay, identification of correction compounds. In kind it is cell-based. Particulars: Table 3; assay not given. The source says:
I) Membrane Potential Optical Methods for Assaying ΔF508-CFTR Modulation Properties of Compounds
These voltage sensitive assays are based on the change in fluorescence resonant energy transfer (FRET) between the membrane-soluble, voltage-sensitive dye, DiSBAC2(3), and a fluorescent phospholipid, CC2-DMPE, which is attached to the outer leaflet of the plasma membrane and acts as a FRET donor. Changes in membrane potential (Vm) cause the negatively charged DiSBAC2(3) to redistribute across the plasma membrane and the amount of energy transfer from CC2-DMPE changes accordingly. The changes in fluorescence emission were monitored using VIPR™ II, which is an integrated liquid handler and fluorescent detector designed to conduct cell-based screens in 96- or 384-well microtiter plates.
Identification of Correction Compounds
To identify small molecules that correct the trafficking defect associated with ΔF508-CFTR; a single-addition HTS assay format was developed. The cells were incubated in serum-free medium for 16 hrs at 37° C. in the presence or absence (negative control) of test compound. As a positive control, cells plated in 384-well plates were incubated for 16 hrs at 27° C. to “temperature-correct” ΔF508-CFTR. The cells were subsequently rinsed 3× with Krebs Ringers solution and loaded with the voltage-sensitive dyes. To activate ΔF508-CFTR, 10 μM forskolin and the CFTR potentiator, genistein (20 μM), were added along with Cl^− free medium to each well. The addition of Cl^− free medium promoted Cl^− efflux in response to ΔF508-CFTR activation and the resulting membrane depolarization was optically monitored using the FRET-based voltage-sensor dyes.
• Bath Solution #1: (in mM) NaCl 160, KCl 4.5, CaCl2 2, MgCl2 1, HEPES 10, pH 7.4 with NaOH. • Chloride-free bath solution: Chloride salts in Bath Solution #1 are substituted with gluconate salts. • CC2-DMPE: Prepared as a 10 mM stock solution in DMSO and stored at −20° C. • DiSBAC2(3): Prepared as a 10 mM stock in DMSO and stored at −20° C.
NIH3T3 mouse fibroblasts stably expressing ΔF508-CFTR are used for optical measurements of membrane potential. The cells are maintained at 37° C. in 5% CO2 and 90% humidity in Dulbecco's modified Eagle's medium supplemented with 2 mM glutamine, 10% fetal bovine serum, 1×NEAA, β-ME, 1×pen/strep, and 25 mM HEPES in 175 cm^2 culture flasks. For all optical assays, the cells were seeded at 30,000/well in 384-well matrigel-coated plates and cultured for 2 hrs at 37° C. before culturing at 27° C. for 24 hrs. for the potentiator assay.

T1 sequence (P13569 with tags, fused parts or gaps DEL508-508): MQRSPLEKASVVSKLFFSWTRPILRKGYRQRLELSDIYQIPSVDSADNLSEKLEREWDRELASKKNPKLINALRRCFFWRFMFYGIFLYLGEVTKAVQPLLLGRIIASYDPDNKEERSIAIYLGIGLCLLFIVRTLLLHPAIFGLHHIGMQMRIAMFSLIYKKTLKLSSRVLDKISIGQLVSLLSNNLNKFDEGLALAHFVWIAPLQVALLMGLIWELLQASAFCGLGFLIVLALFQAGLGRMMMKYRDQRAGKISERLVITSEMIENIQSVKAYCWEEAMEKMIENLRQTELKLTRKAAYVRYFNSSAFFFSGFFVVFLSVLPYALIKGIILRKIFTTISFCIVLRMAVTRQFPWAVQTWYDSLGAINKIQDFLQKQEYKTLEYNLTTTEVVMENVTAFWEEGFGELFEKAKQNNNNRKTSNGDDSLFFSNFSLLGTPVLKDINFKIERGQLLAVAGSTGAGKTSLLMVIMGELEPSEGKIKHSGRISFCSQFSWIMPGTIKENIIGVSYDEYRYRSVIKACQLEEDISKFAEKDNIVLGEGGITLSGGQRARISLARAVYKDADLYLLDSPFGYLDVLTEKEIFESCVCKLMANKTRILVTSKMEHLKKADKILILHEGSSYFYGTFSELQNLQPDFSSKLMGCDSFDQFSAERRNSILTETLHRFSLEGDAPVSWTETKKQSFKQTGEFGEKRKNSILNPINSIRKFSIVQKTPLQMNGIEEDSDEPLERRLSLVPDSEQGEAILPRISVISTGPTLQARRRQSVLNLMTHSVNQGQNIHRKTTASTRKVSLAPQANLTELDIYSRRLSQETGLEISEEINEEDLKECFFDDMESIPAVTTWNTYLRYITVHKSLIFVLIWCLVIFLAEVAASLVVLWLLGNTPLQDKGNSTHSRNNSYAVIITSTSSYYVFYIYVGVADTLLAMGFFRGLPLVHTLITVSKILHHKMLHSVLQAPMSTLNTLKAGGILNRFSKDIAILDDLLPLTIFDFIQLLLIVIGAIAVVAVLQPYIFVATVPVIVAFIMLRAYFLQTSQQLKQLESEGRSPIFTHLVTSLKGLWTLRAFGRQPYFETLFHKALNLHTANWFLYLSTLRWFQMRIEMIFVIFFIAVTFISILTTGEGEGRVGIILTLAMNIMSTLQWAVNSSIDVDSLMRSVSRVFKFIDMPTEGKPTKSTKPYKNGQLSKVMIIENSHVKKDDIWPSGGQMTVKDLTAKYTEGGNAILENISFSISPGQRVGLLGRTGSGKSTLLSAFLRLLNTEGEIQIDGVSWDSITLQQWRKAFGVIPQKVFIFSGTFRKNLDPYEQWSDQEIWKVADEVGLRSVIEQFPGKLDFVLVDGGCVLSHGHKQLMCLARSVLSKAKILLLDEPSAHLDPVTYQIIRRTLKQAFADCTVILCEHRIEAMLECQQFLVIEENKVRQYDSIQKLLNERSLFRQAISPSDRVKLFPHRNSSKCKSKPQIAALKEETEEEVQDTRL

In general, EC50 refers to the concentration giving half of the maximal effect. Take `COc1ccc(Cc2cnc(NC(=O)C3(c4ccc(OC)cc4)CC3)s2)cc1` [Example 180]: the “% Activity / % Efficacy (relative efficacy)” value is “+++ (“+++” means>100%)” and the EC50 was less than 10 µM.

With `COc1cccc(Cc2cnc(NC(=O)C3(c4ccc5c(c4)OCO5)CC3)s2)c1` [Example 181], the “% Activity / % Efficacy (relative efficacy)” value is given as “+++ (“+++” means>100%)” and the EC50 was less than 10 µM.

As to `COc1ccc(F)cc1Cc1cnc(NC(=O)C2(c3ccc4c(c3)OCO4)CC2)s1` [Example 182], the “% Activity / % Efficacy (relative efficacy)” value is on record as “+++ (“+++” means>100%)” and the EC50 is less than 10 µM.

In the case of `COc1ccc(Cc2cnc(NC(=O)C3(c4ccc5c(c4)OCO5)CC3)s2)cc1` [Example 183], the “% Activity / % Efficacy (relative efficacy)” value was “+++ (“+++” means>100%)” and the EC50 is less than 10 µM.

Take `CCCc1nc(NC(=O)C2(c3ccc(OC)cc3)CC2)sc1C(=O)OCC` [Example 184]: the “% Activity / % Efficacy (relative efficacy)” value is on record as “+++ (“+++” means>100%)” and the 50% effective concentration (EC50) was less than 10 µM.

In the case of `CN(C)CCNC(c1cnc(NC(=O)C2(c3ccc4c(c3)OCO4)CC2)s1)c1ccccc1Cl` (centres unmarked) [Example 187], the “% Activity / % Efficacy (relative efficacy)” value is listed as “+++ (“+++” means>100%)” and the EC50 was less than 10 µM.

As for `O=C(Nc1ncc(C(NCCN2CCOCC2)c2ccccc2Cl)s1)C1(c2ccc3c(c2)OCO3)CC1` (centres unmarked) [Example 188], the “% Activity / % Efficacy (relative efficacy)” value is listed as “++ (“++” means between 25% to 100%)” and the EC50 was less than 10 µM.

With `O=C1CCCc2nc(NC(=O)C3(c4ccc5c(c4)OCO5)CC3)sc21` [Example 190], the “% Activity / % Efficacy (relative efficacy)” value was “+ (“+” means<25%)” and the half-maximal effective concentration (EC50) fell in the range of 10 to 25 µM.

As to `CCCc1nc(NC(=O)C2(c3ccc4c(c3)OCO4)CC2)sc1C(=O)O` [Example 191], the “% Activity / % Efficacy (relative efficacy)” value is on record as “++ (“++” means between 25% to 100%)” and the concentration giving a half-maximal response (EC50) is less than 10 µM.

Regarding `CCCc1nc(NC(=O)C2(c3ccc4c(c3)OCO4)CC2)sc1C(=O)NCC` [Example 192], the “% Activity / % Efficacy (relative efficacy)” value is listed as “+++ (“+++” means>100%)” and the EC50 is less than 10 µM.

`COc1ccc(C2(C(=O)Nc3ncc(Cc4c(F)cccc4OC)s3)CC2)cc1` [Example 193]: the “% Activity / % Efficacy (relative efficacy)” value was “+++ (“+++” means>100%)” and the 50% effective concentration (EC50) is less than 10 µM.

Consider `COc1ccc(C2(C(=O)Nc3ncc(CCc4ccccc4OC)s3)CC2)cc1` [Example 194], for which the “% Activity / % Efficacy (relative efficacy)” value is given as “++ (“++” means between 25% to 100%)” and the EC50 was less than 10 µM.

Turning to `CCOC(=O)c1nc(NC(=O)C2(c3ccc(OC)cc3)CC2)sc1Cc1ccccc1OC` [Example 195], the “% Activity / % Efficacy (relative efficacy)” value was “+++ (“+++” means>100%)” and the EC50 was less than 10 µM.

Turning to `COc1cccc(F)c1Cc1cnc(NC(=O)C2(c3ccc4c(c3)OCO4)CC2)s1` [Example 196], the “% Activity / % Efficacy (relative efficacy)” value is listed as “+++ (“+++” means>100%)” and the concentration for a half-maximal effect (EC50) was less than 10 µM.

As for `COc1ccccc1CCc1cnc(NC(=O)C2(c3ccc4c(c3)OCO4)CC2)s1` [Example 197], the “% Activity / % Efficacy (relative efficacy)” value is recorded as “+++ (“+++” means>100%)” and the concentration giving a half-maximal response (EC50) is less than 10 µM.

In the case of `COc1ccccc1Cc1cnc(NC(=O)C2(c3ccc(F)c(F)c3)CC2)s1` [Example 198], the “% Activity / % Efficacy (relative efficacy)” value is listed as “+++ (“+++” means>100%)” and the EC50 was less than 10 µM.

As to `O=C(Nc1ncc(Cc2ccccc2Cl)s1)C1(c2ccc(F)c(F)c2)CC1` [Example 199], the “% Activity / % Efficacy (relative efficacy)” value is given as “+++ (“+++” means>100%)” and the half-maximal effective concentration (EC50) is less than 10 µM.

In the case of `COc1ccc(CC2(C(=O)Nc3ncc(Cc4ccccc4OC)s3)CC2)cc1` [Example 200], the “% Activity / % Efficacy (relative efficacy)” value is on record as “+++ (“+++” means>100%)” and the EC50 was less than 10 µM.

For the compound `COc1ccc(CC2(C(=O)Nc3ncc(Cc4ccccc4Cl)s3)CC2)cc1` [Example 201], the “% Activity / % Efficacy (relative efficacy)” value is “++ (“++” means between 25% to 100%)” and the EC50 is less than 10 µM.

The values above are taken from US7977322B2 (Vertex Pharmaceuticals Incorporated, priority 2004, dated 2011).
